Results published in patent US20260274814A1, “THIENYL COMPOUNDS FOR THE TREATMENT OF A CENTRAL NERVOUS SYSTEM DISEASE OR DISORDER” (Coreterra Therapeutics, Inc., priority 2023, published 2026).
Structures can show the parent of a compound that is named as a salt. Where two headings read alike, the source gives them in different places.

Tested on: mice
Experiment: Neuropharmacological Assay (SmartCube): automated behavioral signature of compound-treated mice compared with a database of reference drug classes
Assay type: in vivo
Conditions: for minimal effective dose: Mus musculus, ip
Summary of the method: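 Dose-response work typically spanned 0.3–10 mpk, widened or narrowed to obtain a full curve, with i.p. administration 15 min pre-test. MED is defined as the dose producing ≥45% total SmartCube activity; single-dose entries list the tested dose.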

[1] = minimal effective dose: dose having 45% or more total activity in SmartCube, i.p., if only one dose was tested, that dose is shown, read-out: MED
[2] = SmartCube probability class, 3.0 mg/kg dose, i.p. 15 min before the behavioral test
[3] = SmartCube probability class, 3.0 mg/kg dose, i.p. 15 min before the behavioral test, hydrochloride, 3 mg/kg
[4] = SmartCube class probability, 3.0 mg/kg i.p., 15 min before test
[5] = SmartCube class probability, 3.0 mg/kg i.p., 15 min before test, hydrochloride, 3 mg/kg
[6] = minimal effective dose: dose having 45% or more total activity in SmartCube, i.p., if only one dose tested, that dose is shown
[7] = minimal effective dose: dose having 45% or more total activity in SmartCube, i.p., if only one dose was tested, that dose is shown
[8] = minimal effective dose: dose having 45% or more total activity in SmartCube, i.p., if only one dose tested, that dose is shown, read-out: MED
[9] = dose having 45% or more total activity in SmartCube, i.p., if only one dose was tested, that dose is shown, read-out: MED (minimal effective dose)
[10] = probability that activity matches this class of agents, 3.0 mg/kg i.p., 15 min before test
[11] = probability that activity matches this class of agents, 3.0 mg/kg i.p., 15 min before test, hydrochloride, 3 mg/kg

CNC1COc2c(C3CC3)csc2C1 (single isomer, unassigned) [Compound 324, 3-cyclopropyl-N-methyl-6,7-dihydro-5H-thieno[3,2-b]pyran-6-amine hydrochloride]
minimal effective dose [1]: 3 mg/kg | AG [2]: ND (^ <4%) | AN [2]: ND (^ <4%) | AP [2]: ND (^ <4%) | AX [2]: ND (^ <4%) | CE [2]: ND (^ <4%) | HL [2]: ND (^ <4%) | MS [2]: ND (^ <4%) | PS [2]: ND (^ <4%) | SH [2]: ND (^ <4%) | AD [3]: + (≥4%) | UK [3]: ND (^ <4%)

CNC1CCc2c(sc(Cl)c2C)C1 (single isomer, unassigned) [Compound 148, 2-chloro-N, 3-dimethyl-4,5,6,7-tetrahydrobenzothiophen-6-amine hydrochloride]
AG [4]: ND (^ <4%) | CE [4]: ND (^ <4%) | MS [4]: ND (^ <4%) | PS [4]: ND (^ <4%) | SH [4]: ND (^ <4%) | AD [5]: +++ (≥49%) | AN [5]: ND (^ <4%) | AP [5]: + (≥4%) | AX [5]: ++ (≥24%) | HL [5]: ND (^ <4%) | UK [5]: ND (^ <4%) | MED [6]: 3 mpk

CNC1COc2c(C3CC3)csc2C1 (single isomer, unassigned) [Compound 325, 3-cyclopropyl-N-methyl-6,7-dihydro-5H-thieno[3,2-b]pyran-6-amine hydrochloride]
AG [2]: ND (^ <4%) | AN [2]: ND (^ <4%) | AP [2]: ND (^ <4%) | AX [2]: ND (^ <4%) | CE [2]: ND (^ <4%) | HL [2]: ND (^ <4%) | MS [2]: ND (^ <4%) | PS [2]: ND (^ <4%) | SH [2]: ND (^ <4%) | AD [3]: ND (^ <4%) | UK [3]: ++ (≥24%) | MED [7]: 3 mpk

CNC1COc2c(F)csc2C1 (stereo not drawn) [Compound 225, 3-fluoro-N-methyl-6,7-dihydro-5H-thieno[3,2-b]pyran-6-amine hydrochloride]
minimal effective dose [8]: < 3 mg/kg | AD [4]: ND (^ <4%) | AG [4]: ND (^ <4%) | AN [4]: ND (^ <4%) | AP [4]: ++++ (≥74%) | AX [4]: ND (^ <4%) | CE [4]: ND (^ <4%) | HL [4]: ND (^ <4%) | MS [4]: ND (^ <4%) | PS [4]: ND (^ <4%) | SH [4]: ND (^ <4%) | UK [4]: ND (^ <4%)

NC1CCc2csc(Cl)c2C1 (stereo not drawn) [Compound 89, 3-chloro-4,5,6,7-tetrahydro-2-benzothiophen-5-amine hydrochloride]
minimal effective dose [9]: 3 mg/kg | AD [10]: ND (^ <4%) | AG [10]: ND (^ <4%) | AN [10]: ND (^ <4%) | AP [10]: ND (^ <4%) | AX [10]: + (≥4%) | CE [10]: ND (^ <4%) | HL [10]: ND (^ <4%) | MS [10]: ++ (≥24%) | PS [10]: ND (^ <4%) | SH [10]: ND (^ <4%) | UK [10]: ND (^ <4%)

CNC1CCc2c(sc(C)c2C)C1 (single isomer, unassigned) [Compound 42, N, 2,3-trimethyl-4,5,6,7-tetrahydrobenzothiophen-6-amine hydrochloride]
minimal effective dose [9]: 3 mg/kg | AD [10]: ++++ (≥74%) | AG [10]: ND (^ <4%) | AN [10]: ND (^ <4%) | AP [10]: ND (^ <4%) | AX [10]: ND (^ <4%) | CE [10]: ND (^ <4%) | MS [10]: ND (^ <4%) | PS [10]: ND (^ <4%) | SH [10]: ND (^ <4%) | UK [10]: ND (^ <4%) | HL [11]: ND (^ <4%)

CNC1CCc2c(C(F)(F)F)csc2C1 (single isomer, unassigned) [Compound 231, N-methyl-3-(trifluoromethyl)-4,5,6,7-tetrahydrobenzothiophen-6-amine hydrochloride]
AG [4]: ND (^ <4%) | AN [4]: ND (^ <4%) | AP [4]: ND (^ <4%) | AX [4]: ND (^ <4%) | CE [4]: ND (^ <4%) | HL [4]: ND (^ <4%) | MS [4]: ND (^ <4%) | PS [4]: ND (^ <4%) | SH [4]: ND (^ <4%) | AD [5]: ND (^ <4%) | UK [5]: +++ (≥49%) | MED [6]: 3 mpk

CNC1CCc2csc(C3CC3)c2C1 (single isomer, unassigned) [Compound 154, 3-cyclopropyl-N-methyl-4,5,6,7-tetrahydro-2-benzothiophen-5-amine hydrochloride]
AG [4]: ND (^ <4%) | AN [4]: ND (^ <4%) | AP [4]: ND (^ <4%) | AX [4]: ND (^ <4%) | HL [4]: ND (^ <4%) | PS [4]: ND (^ <4%) | UK [4]: ND (^ <4%) | AD [5]: ND (^ <4%) | CE [5]: ND (^ <4%) | MS [5]: ND (^ <4%) | SH [5]: ND (^ <4%) | MED (minimal effective dose: dose having 45% or more total activity in SmartCube, i.p., if only one dose tested, that dose is shown, hydrochloride): >1 mpk

CNC1CCc2scc(C3CC3)c2C1 (stereo not drawn) [Compound 201, 3-cyclopropyl-N-methyl-4,5,6,7-tetrahydrobenzothiophen-5-amine hydrochloride]
minimal effective dose [8]: 3 mg/kg | AD [4]: ND (^ <4%) | AG [4]: ND (^ <4%) | AN [4]: ND (^ <4%) | AP [4]: ND (^ <4%) | AX [4]: + (≥4%) | CE [4]: ND (^ <4%) | HL [4]: ND (^ <4%) | MS [4]: ND (^ <4%) | PS [4]: ND (^ <4%) | SH [4]: ND (^ <4%) | UK [4]: ++ (≥24%)

CNC1(C)COc2c(C)csc2C1 (racemic) [Compound 238, N, 3,6-trimethyl-6,7-dihydro-5H-thieno[3,2-b]pyran-6-amine hydrochloride]
minimal effective dose [8]: > 3 mg/kg | AD [4]: ND (^ <4%) | AG [4]: ND (^ <4%) | AN [4]: ND (^ <4%) | AP [4]: ND (^ <4%) | AX [4]: ND (^ <4%) | CE [4]: ND (^ <4%) | HL [4]: ND (^ <4%) | MS [4]: ND (^ <4%) | PS [4]: ND (^ <4%) | SH [4]: ND (^ <4%) | UK [4]: ++ (≥24%)

CNC1CCc2csc(C#N)c2C1 (single isomer, unassigned) [Compound 134, 6-(methylamino)-4,5,6,7-tetrahydro-2-benzothiophene-1-carbonitrile hydrochloride]
MED (minimal effective dose) (dose having 45% or more total activity in SmartCube, i.p., if only one dose was tested, that dose is shown, hydrochloride): 3 mpk | AG [10]: ND (^ <4%) | AN [10]: ND (^ <4%) | AX [10]: ND (^ <4%) | CE [10]: ND (^ <4%) | HL [10]: ND (^ <4%) | MS [10]: ND (^ <4%) | PS [10]: ND (^ <4%) | SH [10]: ND (^ <4%) | AD [11]: ND (^ <4%) | AP [11]: ND (^ <4%) | UK [11]: +++ (≥49%)

CCc1csc2c1CC(N)CC2 (single isomer, unassigned) [Compound 279, 3-ethyl-4,5,6,7-tetrahydrobenzothiophen-5-amine hydrochloride]
minimal effective dose [1]: 3 mg/kg | AD [2]: ND (^ <4%) | AG [2]: ND (^ <4%) | AN [2]: ND (^ <4%) | AP [2]: ND (^ <4%) | AX [2]: ND (^ <4%) | CE [2]: ND (^ <4%) | HL [2]: ND (^ <4%) | MS [2]: ND (^ <4%) | PS [2]: ND (^ <4%) | SH [2]: ND (^ <4%) | UK [3]: ++ (≥24%)

CNC1COc2c(C)csc2C1 (single isomer, unassigned) [Compound 298, N, 3-dimethyl-6,7-dihydro-5H-thieno[3,2-b]pyran-6-amine hydrochloride]
AD [2]: ND (^ <4%) | AG [2]: ND (^ <4%) | AN [2]: ND (^ <4%) | AP [2]: ND (^ <4%) | CE [2]: ND (^ <4%) | HL [2]: ND (^ <4%) | MS [2]: ND (^ <4%) | PS [2]: ND (^ <4%) | SH [2]: ND (^ <4%) | UK [2]: ND (^ <4%) | AX [3]: +++ (≥49%) | MED [7]: 3 mpk

CNC1CCc2csc(C#N)c2C1 (stereo not drawn) [Compound 93, 6-(methylamino)-4,5,6,7-tetrahydro-2-benzothiophene-1-carbonitrile hydrochloride]
minimal effective dose [9]: 0.1 mg/kg | AD [10]: ND (^ <4%) | AG [10]: ND (^ <4%) | AN [10]: ND (^ <4%) | AP [10]: ++++ (≥74%) | AX [10]: ND (^ <4%) | CE [10]: ND (^ <4%) | HL [10]: ND (^ <4%) | MS [10]: ND (^ <4%) | PS [10]: ND (^ <4%) | SH [10]: ND (^ <4%) | UK [10]: ND (^ <4%)

CNC1CCc2c(F)sc(C)c2C1 (stereo not drawn) [Compound 100, 1-fluoro-N, 3-dimethyl-4,5,6,7-tetrahydro-2-benzothiophen-5-amine hydrochloride]
minimal effective dose [9]: 1 mg/kg | AD [10]: ND (^ <4%) | AG [10]: ND (^ <4%) | AN [10]: ND (^ <4%) | AP [10]: ++++ (≥74%) | AX [10]: ND (^ <4%) | CE [10]: ND (^ <4%) | HL [10]: ND (^ <4%) | MS [10]: ND (^ <4%) | PS [10]: ND (^ <4%) | SH [10]: ND (^ <4%) | UK [10]: ND (^ <4%)
